Data from US5914338A, “Heterocyclic compounds and their preparation and use” (Novo Nordisk, priority 1996, dated 1999).
Structures can show the parent of a compound that is named as a salt. Where two headings read alike, the source gives them in different places.

Legend:
[1] = target: muscarinic acetylcholine receptors; experiment: inhibition of specific binding of ^3 H-Oxotremorine-M (^3 H-Oxo), fresh rat cortex; set-up: species or system rat (male Wistar); details: ^3 H-Oxotremorine 1.0 nM, 30 min at 25° C, pH 7.4
Source text: The pharmacological properties of the compounds of the invention can be illustrated by determining their capability to inhibit the specific binding of ^3 H-Oxotremorine-M (^3 H-Oxo). Birdsdall N. J. M., Hulme E. C., and Burgen A. S. V. (1980). "The Character of Muscarinic Receptors in Different Regions of the Rat Brain". Proc. Roy. Soc. London (Series B) 207,1.
^3 H-Oxo labels muscarinic receptor in the CNS (with a preference for agonist domains of the receptors). Three different sites are labelled by ^3 H-Oxo. […] Using the present experimental conditions only the high and medium affinity sites are determined.
The inhibitory effects of compounds on ^3 H-Oxo binding reflects the affinity for muscarinic acetylcholine receptors.
All preparations are performed at 0-4° C. unless otherwise indicated. Fresh cortex (0.1-1 g) from male Wistar rats (150-250 g) is homogenized for 5-10 s in 10 ml 20 mM Hepes pH: 7.4, with an Ultra-Turrax homogenizer. The homogenizer is rinsed with 10 ml of buffer and the combined suspension centrifuged for 15 min. at 40,000×g. The pellet is washed three times with buffer. In each step the pellet is homogenized as before in 2×10 ml of buffer and centrifuged for 10 min. at 40,000×g.
The final pellet is homogenized in 20 mM Hepes pH: 7.4 (100 ml per g of original tissue) and used for binding assay. Aliquots of 0.5 ml is added 25 μl of test solution and 25 μl of ^3 H-Oxotremorine (1.0 nM, final concentration) mixed and incubated for 30 min. at 25° C. Non-specific is determined in triplicate using arecoline (1 μg/ml, final concentration) as the test substance. After incubation samples are added 5 ml of ice-cold buffer and poured directly onto Whatman GF/C glass fiber filters under suction and immediately washed 2 times with 5 ml of ice-cold buffer. The amount of radioactivity on the filters are determined by conventional liquid scintillation counting. Specific binding is total binding minus non specific binding.
Test substances are dissolved in 10 ml water (if necessary heated on a steambath for less than 5 min.) at a concentration of 2.2 mg/ml. 25-75% inhibition of specific binding must be obtained before calculation of IC50.
The test value will be given as IC50 (the concentration (nM) of the test substance which inhibits the specific binding of ^3 H-Oxo by 50%) .
(§1) IC50 =(applied test substance concentration) x(Cx /Co
(§2) where Co is specific binding in control assays and Cx is the specific binding in the test assay. (The calculations assume normal mass-action kinetics).

[2] = target: T1, subtype of muscarinic receptors (M1-site, pirenzepine sensitive site), rat cerebral cortex membranes (Rattus norvegicus, UniProt P08482); experiment: inhibition of ^3 H-PRZ (pirenzepine, [N-methyl-^3 H]) binding to rat cerebral cortex membranes; set-up: species or system rat (male Wistar)
T1 construct: Fresh cortex (0.1-1 g) from male Wistar rats (150-200 g) is homogenized; from tissue; host or cells: fresh cerebral cortex membranes of male Wistar rats
T1 sequence (P08482 1-460): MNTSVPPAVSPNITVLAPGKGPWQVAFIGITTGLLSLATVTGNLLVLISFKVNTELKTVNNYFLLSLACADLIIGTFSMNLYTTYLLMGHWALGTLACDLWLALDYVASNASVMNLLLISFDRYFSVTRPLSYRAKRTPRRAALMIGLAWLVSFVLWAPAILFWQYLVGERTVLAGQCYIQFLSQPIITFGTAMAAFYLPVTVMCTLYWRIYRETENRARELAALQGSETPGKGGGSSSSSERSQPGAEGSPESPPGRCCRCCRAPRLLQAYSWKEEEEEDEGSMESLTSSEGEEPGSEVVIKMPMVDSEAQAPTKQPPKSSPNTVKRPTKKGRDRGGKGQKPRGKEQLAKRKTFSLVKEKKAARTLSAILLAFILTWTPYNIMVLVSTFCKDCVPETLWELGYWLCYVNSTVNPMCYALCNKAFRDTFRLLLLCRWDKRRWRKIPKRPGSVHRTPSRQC
Protocol: Furthermore, the pharmacological properties of the compounds of the invention can also be illustrated by determining their capability to inhibit ^3 H-PRZ (pirenzepine, [N-methyl-^3 H]) binding to rat cerebral cortex membranes. Pirenzepine binds selectively to subtype of muscarinic receptors. Historically the type is named the M1 -site, whereas pirenzepine sensitive site would be more appropriate.
All preparations are performed at 0-4° C. unless otherwise indicated. Fresh cortex (0.1-1 g) from male Wistar rats (150-200 g) is homogenized for 5-10 s. in 10 ml 20 mM Hepes pH: 7.4, with an Ultra-Turraxhomogenizer. The homogenizer is rinsed with 2×10 ml of buffer and the combined suspension centrifuged for 15 min at 40,000×g. The pellet is washed three times with buffer. In each step the pellet is homogenized as before in 3×10 ml of buffer and centrifuged for 10 min at 40,000×g.
The final pellet is homogenized in 20 mM Hepes pH: 7.4 (100 ml per g of original tissue) and used for binding assay. Aliquots of 0.5 ml is added 20 μl of test solution and 25 μl of ^3 H-Pirenzepine (1.0 nM, final conc.), mixed and incubated for 60 min at 20° C. Non-specificbinding is determined in triplicate using atropine (1 μg/ml, final conc.) as the test substance. After incubation samples are added 5 ml of ice-cold buffer and poured directly onto Whatman GF/C glass fibre filters under suction and immediately washed 2 times with 5 ml of ice-cold buffer. The amount of radioactivity on the filters are determined by conventional liquid scintillation counting. Specific binding is total binding minus non-specific binding.
Test substances are dissolved in 10 ml water, at a concentration of 0.22 mg/ml. 25-75% inhibition of specific binding must be obtained before calculation of IC50.
The test value will be given as IC50 (the concentration (nM) of the test substance which inhibits the specific binding of ^3 H-PRZ by 50%) .
as §1, §2

[3] = target: muscarinic receptor in the CNS; details: read-out: affinity of site labelled by ^3 H-Oxo, cited from earlier work
[4] = test system: M2-sites; details: cited from earlier work
[5] = test system: M1-sites; details: cited from earlier work
[6] = ^3 H-Pirenzepine 1.0 nM, rat cortex, 60 min at 20° C, pH 7.4, read-out: ^3 H-PRZ IC50

SMILES	IC50 [1] [nM]	IC50 [2, 6] [nM]	also measured
CCCSc1nsnc1C12CN3CC1C2C3 [Compound 2, 1-(3-Propylthio-1,2,5-thiadiazol-4-yl)-4-azatricyclo[2.2.1.0^2,6]heptane, oxalate]	4.3		IC50 [2]: 100 nM
FC(F)(F)CCSc1nsnc1C12CN3CC1C2C3 [Compound 3, 1-(3,3,3-Trifluoropropylthio-1,2,5-thiadiazol-4-yl)-4-azatricyclo[2.2.1.0^2,6]heptane, oxalate]	14	245	
N#Cc1ccc(CSc2nsnc2C23CN4CC2C3C4)cc1 [Compound 4, 1-[3-(4-Cyanobenzylthio)-1,2,5-thiadiazol-4-yl]-4-azatricyclo[2.2.1.0^2,6]heptane, oxalate]	41	500	
Fc1ccc(C#CCOc2nsnc2C23CN4CC2C3C4)cc1 [Compound 6, 1-(3-[3-(4-Fluorophenyl)-2-propynyl-1-oxy]-1,2,5-thiadiazol-4-yl)-4-azatricyclo[2.2.1.0^2,6]heptane, oxalate]	17	93	
C(#Cc1ccccc1)COc1nsnc1C12CN3CC1C2C3 [Compound 7, 1-[3-(3-Phenyl-2-propynyl-1-oxy)-1,2,5-thiadiazol-4-yl]-4-azatricyclo[2.2.1.0^2,6]heptane, oxalate]	26	183	
C(#Cc1ccsc1)COc1nsnc1C12CN3CC1C2C3 [Compound 8, 1-(3-[3-(3-Thienyl)-2-propyn-1-yloxy]-1,2,5-thiadiazol-4-yl)-4-azatricyclo[2.2.1.0^2,6]heptane, oxalate]	8.7	180	
C(#Cc1cccs1)COc1nsnc1C12CN3CC1C2C3 [Compound 9, 1-(3-[3-(2-Thienyl)-2-propyn-1-yloxy]-1,2,5-thiadiazol-4-yl)-4-azatricyclo[2.2.1.0^2,6]heptane, oxalate]	15	284	
COc1cccc(C#CCOc2nsnc2C23CN4CC2C3C4)c1 [Compound 10, 1-(3-[3-(3-Methoxyphenyl)-2-propyn-1-yloxy]-1,2,5-thiadiazol-4-yl)-4-azatricyclo[2.2.1.0^2,6]heptane, hydrochloride]	25	326	
C(#Cc1cccnc1)COc1nsnc1C12CN3CC1C2C3 [Compound 11, 1-(3-[3-(3-Pyridyl)-2-propyn-1-yloxy]-1,2,5-thiadiazol-4-yl)-4-azatricyclo[2.2.1.0^2,6]heptane, oxalate]	6	400	
C[N+](C)(C)CC#CCN1CCCC1=O [^3 H-Oxo, ^3 H-Oxotremorine-M]			Kd ([3]; first (high affinity) site): 1.8 nM; Kd ([3]; second (medium affinity) site): 20 nM; Kd ([3]; third site, not determined under the present conditions): 3000 nM
CN1CCN(CC(=O)N2c3ccccc3C(=O)Nc3cccnc32)CC1 [pirenzepine]			interaction with M2-sites [4]: also interact with M2 -sites; selectivity for M1-sites [5]: selective for M1 -sites
